Results published in publication PMC7239831, “Suitability of Artificial Membranes in Lipolysis-Permeation Assays of Oral Lipid-Based Formulations” (Pharmaceutical Research, 2020).

Legend:
[1] = Integrity assay with static digest matrix (LY mass transfer); assay type: in vitro ADME; details: GIT-0 membranes
Procedure: Six samples of 4 ml were taken during dispersion and digestion phases of single-compartment in vitro lipolysis (Fig. 1a) of a formulation over a period of 40 min. The formulation was of type IIIB-MC (medium chain length triglyceride component, 8–10 carbons) according to the Lipid Formulation Classification System (LFCS) ([27]), see Table I for composition. […] To visualize membrane integrity, Lucifer Yellow (LY) in DMSO solution was added to each sample to a final LY concentration of 10 μM and 0.1% DMSO. LY is highly hydrophilic; its permeation through intact lipid membranes should therefore be negligible. The sample tubes were then vortexed, and shaken at 450 rpm at 37°C until further use.
Digestion samples were dispensed (1.2 ml) into the donor compartments of Transwell inserts treated to form artificial membranes. Negative controls comprised only blank digestion medium or lipolysis buffer (both containing LY, 10 μM) in the donor compartment. Positive controls were untreated inserts composed of naked polycarbonate filters, or GIT-0 solution added to pre-wet filters (disrupts membrane formation). The receiver compartments contained 2 ml of either plain phosphate buffer (PB, 10 mM), Acceptor Sink Buffer (20 mM HEPES, 1% w/v SDS), or PB supplemented with 4% w/w bovine serum albumin (BSA). All receiver buffers were adjusted to pH 7.40.
From examination of mass transfer profiles, membrane damage was evaluated by Area Under the Curve (AUC) values of LY mass transfer over time. The criteria were that an LY AUC > 10 nmol min cm^−2 was considered to indicate major membrane disruption, while an LY AUC < 1 nmol min cm^−2 was considered to indicate an intact membrane.
LY presence was detected using fluorescence (Spark or Safire^2 plate readers, Tecan, Austria) at 428 and 536 nm wavelength for excitation and emission, respectively. Samples were diluted 1:2 in ice-cold acetonitrile and centrifuged (4°C, 2465 g for 20 min) to precipitate protein content.

[2] = Integrity assay under dynamic digestion conditions (LY mass transfer); assay type: in vitro ADME; details: LiDo on PVDF; up to two hours
Procedure: HDM, GIT-0 and LiDo membranes were subjected to in situ lipolysis of the IIIB-MC LBF in a 6-well culture plate format. Transwell inserts (diameter of 24 mm) were used for polycarbonate filters, and inserts were made in-house to hold the PVDF filters (diameter of 25 mm). For these lipolysis experiments, a modified digestion medium with greater buffering capacity was used. The digestion medium contained 200 mM Tris-maleate in these experiments to maintain pH within 0.3 units of the initial value of the lipolysis buffer (pH 6.5) over one hour of digestion (Table S2, Supplementary Material), since no autotitration could be used in the setup. LBF was weighed into a glass tube, and 10 ml of this modified digestion medium spiked with 10.3 μl of LY in DMSO solution (10 mM) was added and vortexed. […]
GIT-0 and LiDo membranes were also evaluated in a large-scale (75 mm diameter) in-house developed lipolysis-permeation device named “ENA” ([19]) in order to explore whether these two lipid mixtures with theoretically similar compositions and production methods also yielded similar results. […]
LY presence was detected using fluorescence (Spark or Safire^2 plate readers, Tecan, Austria) at 428 and 536 nm wavelength for excitation and emission, respectively. […]

[3] = In vitro lipolysis-permeation assay of fenofibrate-loaded LBFs in the ENA device (porcine pancreatin); assay type: in vitro ADME
Procedure: Three formulations representing LFCS types IIIA-MC, IIIA-LC (long chain fatty acid component), and type IV (Table I) were assayed for their performance using artificial membranes in the ENA device. No more than one week before the assay, excipients were heated to 37°C before being weighed into a glass vial. The vial was capped with argon, vortexed, and then shaken overnight (450 rpm, 37°C). The formulations were then loaded with fenofibrate (80 mg/g) in the same manner, and shaken until complete dissolution.
The loaded formulations were weighed separately and then dispensed into ENA donor compartments (Fig. 1b) that had been prefilled with digestion medium spiked with LY to 10 μM (0.1% DMSO). Samples were taken from both compartments during dispersion (0–10 min) and digestion (10–100 min). Samples from the donor compartment were immediately filtered through a hydrophilic nylon syringe filter (Whatman PuraDisc 13, pore size 0.1 μm) to separate precipitates and oil droplets from fenofibrate in free solution and in colloidal aggregates, using the same procedures as those described in Juenemann et al. and Stillhart et al. ([28],[29]). The syringe filters were then flushed through with room temperature acetonitrile to recover precipitated fenofibrate. […] Phases were instead separated through centrifugation (37°C, 21,000 g for 15 min) for these samples. Receiver compartment samples were then quantified using UPLC-MS, and donor samples using HPLC-UV.
Fenofibrate was analyzed using a UV-DAD coupled HPLC (1290 Infinity, Agilent Technologies) with a Zorbax Eclipse XDB-C18 column (4.6 × 100 mm, Agilent Technologies) kept at 40°C (injection volume 20 μl). The mobile phase consisted of sodium acetate buffer (25 mM, pH 5.0) in acetonitrile solution (2:8 v/v) with isocratic flow (1 ml/min). UV absorbance was monitored at a wavelength of 287 nm. The retention time was 3.32 min. Sample preparation consisted of 100x dilution in mobile phase and a centrifugation step (21,000 g, 15 min, 25°C) to purify the matrix. […]

[4] = parameters: method as in PMID 23500116, doi:10.1016/j.jddst.2016.06.013, PMID 28826878; details: cited from earlier work
Caco-2 monolayer = experiment: Caco-2 based lipolysis-permeation assay in ENA (data re-analyzed from Keemink et al.); details: average over formulations

Lucifer Yellow CH dilithium salt [LY]
LY mass transfer AUC15-60 min ([1]; Fig. 2c, Acceptor Sink Buffer in receiver per legend, 30 min digestion sample): < LOQ
LY mass transfer AUC15-60 min ([1]; Fig. 2c, Acceptor Sink Buffer in receiver per legend, dispersion sample of IIIB-MC LBF): < LOQ
LY mass transfer AUC15-60 min ([1]; Fig. 2d, PB with 4% BSA in receiver per legend, 30 min digestion sample): < LOQ
LY mass transfer AUC15-60 min ([1]; Fig. 2d, PB with 4% BSA in receiver per legend, dispersion sample of IIIB-MC LBF): < LOQ
LY permeation through membrane [2]: did not allow detectable levels

CC(C)OC(=O)C(C)(C)Oc1ccc(C(=O)c2ccc(Cl)cc2)cc1 [fenofibrate]
Expected flux in vivo relative to flux over LiDo/Caco-2 ([3]; based on expected permeability in human small intestine): 10 fold
Flux of fenofibrate over LiDo relative to flux of cinnarizine over Permeapad ([3]; under comparable conditions, average, Permeapad data ref 40): 334 fold
Permeability (in words) [4]: highly permeable
Caco-2 permeability relative to LiDo after adjusting for filter porosity (ε) (Caco-2 monolayer): 1.8 fold
Ratio between Caco-2 and LiDo permeability (Caco-2 monolayer; uncorrected Papp): 0.42

CC(C)(Oc1ccc(C(=O)c2ccc(Cl)cc2)cc1)C(=O)O [fenofibric acid]
Detection of fenofibric acid (control of API degradation during lipolysis and sample storage) ([3]; UPLC-MS, all samples): no fenofibric acid could be detected
